#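 The compound was tested at five concentrations on cells cultured in 96-well plates, with a 48-hour exposure period. At the GI50, growth is halved. TGI marks complete inhibition of growth.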
# Legend:
# Experiment in all cases: DTP human tumour cell line panel, 48 h
# [1] = test system: OVCAR-4 ovarian
# [2] = test system: RXF 393 renal
# [3] = test system: SK-MEL-2 melanoma
# [4] = test system: NCI-H460 lung
# [5] = test system: SNB-19 CNS
# [6] = test system: RPMI-8226 leukemia
# [7] = test system: T-47D breast
# [8] = test system: MOLT-4 leukemia
# [9] = test system: HOP-62 NSCLC
# [10] = test system: M14 melanoma
# [11] = test system: 786-0 renal
# [12] = test system: NCI/ADR-RES ovarian
# [13] = test system: SK-OV-3 ovarian
# [14] = test system: HCT-116 colon
# [15] = test system: TK-10 renal
# [16] = test system: OVCAR-3 ovarian
# [17] = test system: HCT-15 colon
# [18] = test system: COLO 205 colon
# [19] = test system: ACHN renal
# [20] = test system: SK-MEL-28 melanoma
# [21] = test system: NCI-H23 lung
# [22] = test system: MDA-MB-435
# [23] = test system: K-562 leukemia
# [24] = test system: PC-3 prostate
# [25] = test system: HOP-92 NSCLC
# [26] = test system: MDA-MB-231 breast
# [27] = test system: CAKI-1 renal
# [28] = test system: UACC-62 melanoma
# [29] = test system: SK-MEL-5 melanoma
# [30] = test system: MALME-3M melanoma
# [31] = test system: NCI-H226 lung
# [32] = test system: SW-620 colon
# [33] = test system: HS 578T breast
# [34] = test system: KM12 colon
# [35] = test system: OVCAR-5 ovarian
# [36] = test system: UO-31 renal
# [37] = test system: BT-549 breast
# [38] = test system: SF-268 CNS
# [39] = test system: SF-295 CNS
# [40] = test system: CCRF-CEM leukemia
# [41] = test system: A549 NSCLC
# [42] = test system: NCI-H522 lung
# [43] = test system: SNB-75 CNS
# [44] = test system: OVCAR-8 ovarian
# [45] = test system: IGROV1 ovarian
# [46] = test system: LOX IMVI melanoma
# [47] = test system: DU-145 prostate
# [48] = test system: EKVX NSCLC
# [49] = test system: UACC-257 melanoma
# [50] = test system: HCC-2998 colon
# [51] = test system: U251 CNS
# [52] = test system: A498 renal
# [53] = test system: HT29 colon
# [54] = test system: SN12C renal
# [55] = test system: MCF7 breast
# [56] = test system: SF-539 CNS
# [57] = test system: HL-60(TB) leukemia
compound,measurement,setting,value
CCOP(=O)(OCC)C(Nc1ccc(C(=O)O)cc1)c1ccc(C(Nc2ccc(C(=O)O)cc2)P(=O)(OCC)OCC)cc1 (stereo not drawn),TGI,[1],> 100 µM
same,TGI,[2],> 100 µM
same,TGI,[3],> 100 µM
same,TGI,[4],> 100 µM
same,TGI,[5],> 100 µM
same,TGI,[6],> 100 µM
same,TGI,[7],> 100 µM
same,TGI,[8],> 100 µM
same,TGI,[9],> 100 µM
same,TGI,[10],> 100 µM
same,TGI,[11],> 100 µM
same,TGI,[12],> 100 µM
same,TGI,[13],> 100 µM
same,TGI,[14],> 100 µM
same,TGI,[15],> 100 µM
same,TGI,[16],> 100 µM
same,TGI,[17],> 100 µM
same,TGI,[18],> 100 µM
same,TGI,[19],> 100 µM
same,TGI,[20],> 100 µM
same,TGI,[21],> 100 µM
same,TGI,[22],> 100 µM
same,TGI,[23],> 100 µM
same,TGI,[24],> 100 µM
same,TGI,[25],> 100 µM
same,TGI,[26],> 100 µM
same,TGI,[27],> 100 µM
same,TGI,[28],> 100 µM
same,TGI,[29],> 100 µM
same,TGI,[30],> 100 µM
same,TGI,[31],> 100 µM
same,TGI,[32],> 100 µM
same,TGI,[33],> 100 µM
same,TGI,[34],> 100 µM
same,TGI,[35],> 100 µM
same,TGI,[36],> 100 µM
same,TGI,[37],> 100 µM
same,TGI,[38],> 100 µM
same,TGI,[39],> 100 µM
same,TGI,[40],> 100 µM
same,TGI,[41],> 100 µM
same,TGI,[42],> 100 µM
same,TGI,[43],> 100 µM
same,TGI,[44],> 100 µM
same,TGI,[45],> 100 µM
same,TGI,[46],> 100 µM
same,TGI,[47],> 100 µM
same,TGI,[48],> 100 µM
same,TGI,[49],> 100 µM
same,TGI,[50],> 100 µM
same,TGI,[51],> 100 µM
same,TGI,[52],> 100 µM
same,TGI,[53],> 100 µM
Fc1ccc(-c2nc(Nc3ccc(-c4nc5ccccc5[nH]4)cc3)nc(N3CCOCC3)n2)cc1,GI50,[1],1.04 µM
same,TGI,[1],2.4 µM
same,GI50,[13],1.84 µM
same,TGI,[13],3.28 µM
same,GI50,[15],1.96 µM
same,TGI,[15],3.42 µM
same,GI50,[16],0.374 µM
same,TGI,[16],1.37 µM
same,GI50,[25],1.3 µM
same,TGI,[25],2.7 µM
same,GI50,[27],1.41 µM
same,TGI,[27],2.72 µM
same,GI50,[29],1.69 µM
same,TGI,[29],3.13 µM
same,GI50,[32],0.186 µM
same,TGI,[32],0.372 µM
same,GI50,[33],0.7 µM
same,TGI,[33],3.02 µM
same,GI50,[34],0.37 µM
same,TGI,[34],1.41 µM
same,GI50,[41],0.666 µM
same,TGI,[41],2.13 µM
same,GI50,[44],1.12 µM
same,TGI,[44],2.61 µM
same,GI50,[47],0.452 µM
same,TGI,[47],1.64 µM
Cc1ccc(S(=O)(=O)OC[C@@]2(C)CC[C@]3(C)CC[C@]4(C)C(=CC[C@@H]5[C@@]6(C)CCCNC(C)(C)[C@@H]6CC[C@]54C)[C@@H]3C2)cc1,GI50,[2],1.63 µM
same,TGI,[2],3.33 µM
same,GI50,[3],1.82 µM
same,TGI,[3],3.34 µM
same,GI50,[4],1.36 µM
same,TGI,[4],2.85 µM
same,GI50,[12],2.02 µM
same,TGI,[12],4.87 µM
same,GI50,[20],1.75 µM
same,TGI,[20],3.21 µM
same,GI50,[27],1.6 µM
same,TGI,[27],2.94 µM
same,GI50,[28],1.83 µM
same,TGI,[28],3.32 µM
same,GI50,[32],1.32 µM
same,TGI,[32],2.82 µM
same,GI50,[33],1.86 µM
same,TGI,[33],4 µM
same,GI50,[34],1.82 µM
same,TGI,[34],3.43 µM
same,GI50,[35],1.74 µM
same,TGI,[35],3.2 µM
same,GI50,[36],1.39 µM
same,TGI,[36],2.87 µM
same,GI50,[43],1.59 µM
same,TGI,[43],3.1 µM
same,GI50,[47],1.68 µM
same,TGI,[47],3.13 µM
same,GI50,[52],1.66 µM
same,TGI,[52],3.16 µM
N#CCc1nc(-c2cc3c(ccc4ccccc43)oc2=O)cs1,TGI,[1],60.4 µM
same,TGI,[2],74 µM
same,TGI,[3],72.4 µM
same,TGI,[4],> 100 µM
same,TGI,[5],36.4 µM
same,TGI,[6],> 100 µM
same,TGI,[7],> 100 µM
same,TGI,[8],> 100 µM
same,TGI,[9],32.2 µM
same,TGI,[54],> 100 µM
same,TGI,[10],> 100 µM
same,TGI,[11],51.6 µM
same,TGI,[12],70.2 µM
same,TGI,[13],77 µM
same,TGI,[14],> 100 µM
same,TGI,[15],38.9 µM
same,TGI,[17],> 100 µM
same,TGI,[55],> 100 µM
same,TGI,[18],> 100 µM
same,TGI,[19],79.1 µM
same,TGI,[20],> 100 µM
same,TGI,[22],> 100 µM
same,TGI,[23],> 100 µM
same,TGI,[24],> 100 µM
same,TGI,[25],44.5 µM
same,TGI,[56],51.4 µM
same,TGI,[26],39 µM
same,TGI,[27],> 100 µM
same,TGI,[28],68.4 µM
same,TGI,[29],> 100 µM
same,TGI,[30],> 100 µM
same,TGI,[31],81.2 µM
same,TGI,[32],> 100 µM
same,TGI,[33],63.4 µM
same,TGI,[34],> 100 µM
same,TGI,[35],> 100 µM
same,TGI,[57],> 100 µM
same,TGI,[36],> 100 µM
same,TGI,[37],31.5 µM
same,TGI,[38],> 100 µM
same,TGI,[39],71.2 µM
same,TGI,[40],> 100 µM
same,TGI,[41],> 100 µM
same,TGI,[42],27.4 µM
same,TGI,[43],20.4 µM
same,TGI,[44],> 100 µM
same,TGI,[45],43.7 µM
same,TGI,[46],> 100 µM
same,TGI,[47],> 100 µM
same,TGI,[48],> 100 µM
same,TGI,[49],75.7 µM
same,TGI,[50],> 100 µM
same,TGI,[51],38.5 µM
same,TGI,[53],> 100 µM

# — PubChem BioAssay (NCI)
